“Also recorded” adds a separate entry of the source.
Experiments:
inflammatory monocytes = experiment: levels of inflammatory monocytes; set-up: species or system human; details: in vivo
[1] = test system: blood transcriptional programs for type I interferons and IL-6; experiment: blood transcriptional programs in healthy volunteers and RA patients; type: in vivo, human
C-reactive protein (CRP) = experiment: expected reduction in CRP (exposure response model); type: in vivo, human
hsCRP = hsCRP in healthy adults; type: in vivo, human
[2] = test system: human bronchial epithelial cells; experiment: chemokine production from human bronchial epithelial cells; type: cell-based
[3] = test system: collagen-induced arthritis; experiment: rat collagen-induced arthritis model; type: in vivo
[4] = test system: moderately to severely active RA; experiment: 12-week study in patients with moderately to severely active RA; type: in vivo, human; details: doses of 200 and 400 mg as modified release (MR) tablets
[5] = renal excretion of PF-06650833; details: in vivo
LPS-induced TNFα = experiment: acute model of endotoxin-induced inflammation in rats; type: in vivo, rat; details: administered orally
[6] = test system: imiquimod (a TLR7 agonist)-induced skin inflammation; experiment: 5-day murine model of imiquimod-induced skin inflammation; type: in vivo; details: 5-day murine imiquimod model
[7] = test system: IFNα, IFNβ, IFNγ, TNFα, IL-1, IL-2, IL4, IL-6, IL-7, IL-9, IL-10, IL-12, IL13, IL-15, IL-21, IL-23, and IL-27; details: cited from earlier work
IL-6/STAT3 signaling = experiment: in-vitro IL-6/STAT3 signaling; type: cell-based; details: both at 5 and 10 mg
IL-6 = experiment: expected suppression of IL-6 at clinical tofacitinib doses; type: in vivo, human

SMILES | levels of inflammatory monocytes (inflammatory monocytes) | blood transcriptional programs for type I interferons and IL-6 [1] | reduction in CRP (C-reactive protein (CRP); 200 mg IR suspension Q6H) | reduction in CRP (C-reactive protein (CRP); 400 mg MR tablets QD (or 200 mg IR suspension Q6H)) | levels of hsCRP (hsCRP) | chemokine production, IL-1β-stimulated release of CXCL8 and IL-6 [2] | hind paw swelling [3] | efficacy in 12-week study in RA patients [4] | renal excretion [5] | LPS-induced TNFα (LPS-induced TNFα) | ear swelling [6] | levels of IFNα, IFNβ, IFNγ, TNFα, IL-1, IL-2, IL4, IL-6, IL-7, IL-9, IL-10, IL-12, IL13, IL-15, IL-21, IL-23, and IL-27 [7] | IL-6/STAT3 signaling (IL-6/STAT3 signaling) | predicted suppression of IL-6 (IL-6; 5 mg BID dose) | suppression of IL-6 (IL-6; 10 mg BID dose, may be expected)
CC[C@@H]1[C@H](F)C(=O)N[C@@H]1COc1nccc2cc(C(N)=O)c(OC)cc12 [PF-06650833, 1-(((2S,3S,4S)-3-Ethyl-4-fluoro-5-oxopyrrolidin-2-yl)methoxy)-7-methoxyisoquinoline-6-carboxamide] | reduces levels | dose-dependently inhibits | 50-60% | 50-60% | suppression of CRP; also recorded: dose-dependently reduced | reduces | significantly reduced | demonstrated efficacy | low | inhibit LPS-induced TNFα in a dose-dependent manner | inhibit ear swelling in a dose-dependent manner |  |  |  | 
C[C@@H]1CCN(C(=O)CC#N)C[C@@H]1N(C)c1ncnc2[nH]ccc12 [tofacitinib, 3-((3R,4R)-4-Methyl-3-(methyl(7H-pyrrolo[2,3-d]pyrimidin-4-yl)amino)piperidin-1-yl)-3-oxopropanenitrile] |  |  |  |  |  |  |  |  |  |  |  | reduces levels | inhibits | approximately 60% | approximately 80%

From US20230149407A1, “Methods of Treating Coronavirus Disease 2019” (priority 2020, published 2023)
